Patent publication US7504371B2, “Organic catalyst with enhanced enzyme compatibility” (The Procter & Gamble Company, priority 2005, dated 2009)
Structures can show the parent of a compound that is named as a salt.

Tests used:
Format in all cases: biochemical
[1] = target: T1, Termamyl (Bacillus licheniformis, UniProt P06278); experiment: Organic Catalyst/Enzyme Compatibility Test (alpha amylase activity assay), Termamyl; settings: (Ac/Ab)×100; [Peracetic Acid]=5.0 ppm; [organic catalyst]=0.5 ppm; 40° C.; detergent solution
T1 construct: purchased Novozymes, Denmark
Protocol: (§1) Organic Catalyst/Enzyme Compatibility Test
(§2) The test described below uses an alpha amylase activity assay to measure the impact of organic catalysts on the enzyme.
(§3) Equipment. UV/V is spectrophotometer capable of measuring @ 415 nm, heated magnetic stirrer capable of 40° C., 5 mL Luer lock syringe and filters (Acrodisc 0.45 μm), pH meter, and balance (4-place analytical).
(§4) Reagents. […]
(§5) • a.) TRIS Assay Buffer. […] Mix 6 μL of filtered sample with 250 μL of amylase reagent in a cuvette and place the cuvette in a UV/VIS spectrophotometer and monitor change in absorbance at 415 nm. Determine length of time (tE) to the nearest second required to obtain an absorbance reading of 1.0 for each enzyme. […] Once sample and reagent are mixed, record the absorbance at tE for the respective enzyme. Designate such absorbance Ab. • c.) Analysis of sample with enzyme, peracetic acid, and organic catalyst. […] Once sample and reagent are mixed, record the absorbance at tE for the respective enzyme. Designate such absorbance Ac. […] The ECV for any specific enzyme is (Ac/Ab)×100 where Ab and Ac are the values determined in Steps 2.)b.) and 2.)c.), respectively, for that enzyme. • b.) The ECV for a given organic catalyst is the average of the individual ECV values for the three enzymes. […]

[2] = system: Natalase; experiment: Organic Catalyst/Enzyme Compatibility Test (alpha amylase activity assay), Natalase; settings: (Ac/Ab)×100; [Peracetic Acid]=5.0 ppm; [organic catalyst]=0.5 ppm; 40° C.; detergent solution
Protocol: as §1, §2, §3, §4, §5

[3] = system: Duramyl; experiment: Organic Catalyst/Enzyme Compatibility Test (alpha amylase activity assay), Duramyl; settings: (Ac/Ab)×100; [Peracetic Acid]=5.0 ppm; [organic catalyst]=0.5 ppm; 40° C.; detergent solution
Protocol: as §1, §2, §3, §4, §5

[4] = system: Termamyl, Natalase, and Duramyl; experiment: Organic Catalyst/Enzyme Compatibility Test, average of the three amylases; settings: ECV=(ECVter+ECVdur+ECVnat)/3; [Peracetic Acid]=5.0 ppm; [organic catalyst]=0.5 ppm
Protocol: as §1, §2, §3, §4, §5

T1 sequence (P06278 30-512): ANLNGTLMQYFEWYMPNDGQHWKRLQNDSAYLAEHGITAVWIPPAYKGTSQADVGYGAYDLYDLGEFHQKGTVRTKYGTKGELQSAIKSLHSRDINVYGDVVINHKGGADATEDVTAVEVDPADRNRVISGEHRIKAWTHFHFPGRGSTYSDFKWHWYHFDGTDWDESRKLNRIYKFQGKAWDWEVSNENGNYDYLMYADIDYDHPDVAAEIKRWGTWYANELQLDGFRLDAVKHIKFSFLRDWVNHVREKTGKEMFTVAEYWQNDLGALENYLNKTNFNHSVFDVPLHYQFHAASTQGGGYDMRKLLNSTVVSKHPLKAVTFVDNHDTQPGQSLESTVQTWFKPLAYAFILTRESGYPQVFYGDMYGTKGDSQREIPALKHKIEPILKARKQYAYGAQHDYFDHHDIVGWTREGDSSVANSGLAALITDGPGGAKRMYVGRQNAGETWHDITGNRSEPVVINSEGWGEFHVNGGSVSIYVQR

**Q.** For CC(C)(C)OCC(C[N+]1=Cc2ccccc2CC1)OS(=O)(=O)[O-] (stereo not shown) [Entry 1, Sulfuric acid mono-[2-(3,4-dihydro-isoquinolin-2-yl)-1-((1,1-dimethylethoxy)methyl)ethyl] ester, internal salt], which “Enzyme Compatibility Values ECVter” value [1] is on record?
**A.** 51

**Q.** And the “Enzyme Compatibility Values ECVnat” value [2]?
**A.** 58

**Q.** And the “Enzyme Compatibility Values ECVdur” value [3]?
**A.** 86

**Q.** What about the “Enzyme Compatibility Values ECV” value [4] of the same molecule?
**A.** 65
